Test results from patent publication US20250052985A1, “SYSTEM AND METHOD FOR QUANTITATIVE PHASE IMAGING FOR MULTI-PARAMETRIC SCREENING OF TUMOR THERAPY RESPONSE” (UNIVERSITY OF UTAH RESEARCH FOUNDATION, priority 2023, published 2025).
Several values for one entry are separate records, joined by “and”; a condition that tells them apart may be missing. Equal entries are not always repeated. Where two headings read alike, the source gives them in different places.

Columns and labels:
Assay type in all cases: cell-based
BT-474 cells = assay: CellTiter-Glo (CTG) ATP viability assay, BT-474; conditions: for Min Asymptote: BT-474, Hill fit of luminescence normalized to solvent control, one line per replicate; for DoR CTG: depth of response
Protocol: CTG (e.g., read by the CTG reader 115) is a cell viability assay that quantifies the amount of ATP present at the end of an experiment as an indicator of the number of live cells. The electronic controller 155 measures ATP content in each condition as a readout by a luminescent signal, which is normalized by the luminescence of the control (e.g., a control well) to determine cell viability relative to on-plate controls. In some embodiments, the CTG assay is performed by first removing 100 μL of media from each well on the well-plate 105, which is then replaced with an equal amount of CellTiter-Glo reagent (e.g., Promega, G7572). Assayed plates may be shaken at 500 RPM for 20 minutes and allowed to rest for 10 minutes. In some instances, 100 μL of volume from each well is transferred to a white 96-well plate (e.g., Perkin Elmer, 6005680). The electronic controller 155 collects luminescence data from each well using an Envision plate reader (e.g., Perkin Elmer) and normalized against the solvent control to measure ATP content. The electronic controller 155 fits a 4-parameter hill curve to the dose response to determine the EC50 and depth of response.

HCI-037 PDxO cells = assay: QPI on cells from patient-derived organoid HCI-037 (primary lesion); conditions: HCI-037, 48 h imaging, 3-parameter Hill model
Protocol: (§1) In some embodiments, the QPI microscope system 110 performs QPI on cells from patient-derived organoids and direct-from-patient samples. For example, the electronic controller 155 analyzes data on cells from a set of 5 organoids representing samples collected from two patients, as illustrated by a workflow 3400 in FIG. 24. The workflow 3400 is an experiment workflow illustrating how assays are analyzed by the QPI microscope system 110. In some embodiments, the QPI microscope system 110 images cells for 48 h, and uses an automatic segmentation algorithm, via the electronic controller 155, to identify individual cells from background, as shown in images 3405 and 3410 of FIG. 24. […] The electronic controller 155 determines the mass of each cell by summing the cell mass over the segmented area. In some embodiments, plots of mass over time reveal single cell growth rates, as shown by graph 3415 of FIG. 24. The graph 3415 is a mass vs. time plot showing DMSO treated cells growing cells at a typical location. Cells outlined in green are shown as green on the plot, other growing cells are shown in purple. The electronic controller 155 determine the specific growth rate (SGR) by fitting a line to time-series mass measurements and normalizing by an initial mass predicted by the fit to account for the effect of cell size on growth rate. The electronic controller 155 fits SGR as a function of dose to a sigmoidal dose response curve using a 3-parameter Hill model to extract dose response measurements, as shown by graph 3420 of FIG. 24. […] In some embodiments, EC50 measured by the QPI microscope system 110 is strongly concordant with gold standard techniques such as CTG over 27 conditions (e.g., 9 compounds, 3 breast cancer cell lines). […] As with cell line data, QPI data on cells from PDxO resolves differences in temporal dynamics of response to therapy, as shown in graph 3425 of FIG. 24. […] In some embodiments, the electronic controller 155 is configured to determine a drug response of each of the plurality of treatment samples from patient derived organoids.
The graphs 3500 includes graph A of the graphs 3500 showing normalized mass vs. time for HCI-037 (primary), HCI-038 (metastatic), and HCI-039 (pleural effusion) showing reduction in growth as concentration increases. Graphs B, C, D, and E of the graphs 3500 show dose response plots showing the differential response between different disease models. Graphs F, G, H, and I of the graphs 3500 show Hellinger distance vs. time plots showing the time of response for the different models treated with various therapies. In some embodiments, HCI-037, HCI-038, and HCI-039, PDxO models are used that are derived from primary lesion, bone metastasis, and pleural effusion, respectively, at different time points from a single patient during the course of treatment and progressive disease. In some embodiments, the electronic controller 155 is configured to determine a difference drug response from patient derived organoids. In some embodiments, the patient derived organoids are tumor organoids.

HCI-038 PDxO cells = assay: QPI on cells from patient-derived organoid HCI-038 (bone metastasis); conditions: HCI-038, bone metastasis
Protocol: In some embodiments, the QPI microscope system 110 performs QPI on cells from patient-derived organoids and direct-from-patient samples. For example, the electronic controller 155 analyzes data on cells from a set of 5 organoids representing samples collected from two patients, as illustrated by a workflow 3400 in FIG. 24. The workflow 3400 is an experiment workflow illustrating how assays are analyzed by the QPI microscope system 110. In some embodiments, the QPI microscope system 110 images cells for 48 h, and uses an automatic segmentation algorithm, via the electronic controller 155, to identify individual cells from background, as shown in images 3405 and 3410 of FIG. 24. […] The electronic controller 155 determines the mass of each cell by summing the cell mass over the segmented area. In some embodiments, plots of mass over time reveal single cell growth rates, as shown by graph 3415 of FIG. 24. The graph 3415 is a mass vs. time plot showing DMSO treated cells growing cells at a typical location. Cells outlined in green are shown as green on the plot, other growing cells are shown in purple. […] In some embodiments, EC50 measured by the QPI microscope system 110 is strongly concordant with gold standard techniques such as CTG over 27 conditions (e.g., 9 compounds, 3 breast cancer cell lines). […]

HCI-039 PDxO cells = assay: QPI on cells from patient-derived organoid HCI-039 (pleural effusion); conditions: HCI-039, pleural effusion
Protocol: as §1, with “organoids. […]” for “organoids.”

[1] = tested on: primary tumor cells (Patient #1); assay: QPI on primary cells after two-week expansion, Patient #1; conditions: Patient #1
Protocol: In some embodiments, the QPI microscope system 110 applies multiparametric QPI to primary cells from two clinical samples stored in cell bank at, for example, the Huntsman Cancer Institute plated after thawing from liquid nitrogen and CD45+ depleted to reduce the number of immune cells, as shown in FIG. 26.
For example, the primary cells are plated as a 2D monolayer in Clever's complete medium in a 96 well plate (e.g., the well-plate 105) and are allowed to acclimate to cell culture conditions for 18 h prior to dosing with treatments assigned to each patient by a physician. […] The image 3600 is a QPI image of primary cells from a direct from thaw patient derived sample. […] The graph 3610 is a histogram of cell mass used to computationally filter, using the electronic controller 155, for low mass cells (shown in red in the image 3600 and the graph 3605). By using a cutoff between the peaks at, for example, 72 pg, low mass cells can be isolated that are not growing and remove such cells from analysis. […] Using this cutoff, the electronic controller 155 measures the dose response for cells in each condition to determine the EC50 and DoR for each condition studied for the primary cells, as shown in the graph 3615. The graph 3615 is a dose response plot for primary cells treated with therapies assigned to the patient by a physician. […] In some embodiments, the electronic controller 155 determines a drug response in cells from patient derived samples. For example, the electronic controller 155 determines the drug response in therapy treatment samples from patient derived samples.
In some embodiments, both samples are expanded from primary cells in 2D culture using optimized ex vivo culture conditions for 2 weeks, changing media every 3 days to further purify the tumor cells, as shown in a workflow 3700 of FIG. 27.

[2] = BT-474 cell line, CellTiter-Glo
[3] = Homo sapiens, BT-474, BT-474 cell line, CellTiter-Glo, read-out: EC50, CTG
[4] = Homo sapiens, BT-474, 24 h, 24 h CTG, BT-474, Hill fit, read-out: log10(EC50) (converted)
[5] = Homo sapiens, BT-474, 72 h, 72 h CTG, BT-474, Hill fit, read-out: log10(EC50) (converted)

EC50 (BT-474 cells; [3]) [µM] | log10(EC50) (BT-474 cells; 72 h CTG, BT-474, Hill fit) | EC50 (BT-474 cells; [4]) [µM] | EC50 (BT-474 cells; [5]) [µM] | EC50 compared with eribulin [1] | Structure (SMILES) | Min Asymptote (BT-474 cells; 72 h CTG) | DoR CTG (BT-474 cells; [2]) | Hill Slope (BT-474 cells; 24 h CTG, BT-474, Hill fit) | log10(EC50) (BT-474 cells; 24 h CTG, BT-474, Hill fit) | Min Asymptote (BT-474 cells; 24 h CTG) | Hill Slope (BT-474 cells; 72 h CTG, BT-474, Hill fit) | EC50 (BT-474 cells; BT-474 cell line, CellTiter-Glo, read-out: EC50, CTG) [µM] | dose response (SGR vs dose) (HCI-037 PDxO cells) | response compared with primary lesion model (HCI-038 PDxO cells) | response compared with primary lesion model (HCI-039 PDxO cells)
6.4 |  | 1.83 | 0.00766 |  | CC[C@]1(O)C[C@@H]2CN(CCc3c([nH]c4ccccc34)[C@@](C(=O)OC)(c3cc4c(cc3OC)N(C)[C@H]3[C@@](O)(C(=O)OC)[C@H](OC(C)=O)[C@]5(CC)C=CCN6CC[C@]43[C@@H]65)C2)C1 [Vinblastine] | 0.06356 | 1.0 | 0.3445 |  | 0.5659 | 0.1 |  | lesser response | stronger response | stronger response
0.1 | 0.7667 | 10.9 |  |  | O=c1[nH]cc(F)c(=O)[nH]1 [5FU, 5-Fluorouracil] | 0.938 (2×) and 0.9222 | 0.1 | 0.5388 |  | 0.925 | 1.185 and 1.042 |  |  |  | 
0.4 | 0.3455 |  | 0.434 | lower EC50 than eribulin | COc1cccc2c1C(=O)c1c(O)c3c(c(O)c1C2=O)C[C@@](O)(C(=O)CO)C[C@@H]3O[C@H]1C[C@H](N)[C@H](O)[C@H](C)O1 [Doxorubicin] | 0.5407 (2×) and 0.5602 | 0.5 |  |  |  | 8.999 and 8.652 |  | strong response |  | 
 |  | 14.2 |  |  | CC(=O)c1c(C)c2cnc(Nc3ccc(N4CCNCC4)cn3)nc2n(C2CCCC2)c1=O [Palbociclib] | 0.01628 and 0.01895 | 0.9 | 6.945 |  | 0.2202 | 5.467 and 7.802 |  |  |  | 
 | 2.403 | 0.0137 | 0.00334 |  | CC(=O)O[C@@]12CO[C@@H]1C[C@H](O)[C@@]1(C)C(=O)[C@H](O)C3=C(C)[C@@H](OC(=O)[C@H](O)[C@@H](NC(=O)OC(C)(C)C)c4ccccc4)C[C@@](O)([C@@H](OC(=O)c4ccccc4)[C@H]21)C3(C)C [Docetaxel] | 0.2805 and 0.3348 | 0.6 | 7.175 |  | 0.8491 | 7.938 and 5.667 |  |  |  | 

Structure (SMILES) | EC50 (BT-474 cells; [3]) [µM] | log10(EC50) (BT-474 cells; 72 h CTG, BT-474, Hill fit) | EC50 (BT-474 cells; [4]) [µM] | EC50 (BT-474 cells; [5]) [µM] | EC50 compared with eribulin [1] | Min Asymptote (BT-474 cells; 72 h CTG) | DoR CTG (BT-474 cells; [2]) | Hill Slope (BT-474 cells; 24 h CTG, BT-474, Hill fit) | log10(EC50) (BT-474 cells; 24 h CTG, BT-474, Hill fit) | Min Asymptote (BT-474 cells; 24 h CTG) | Hill Slope (BT-474 cells; 72 h CTG, BT-474, Hill fit) | EC50 (BT-474 cells; BT-474 cell line, CellTiter-Glo, read-out: EC50, CTG) [µM] | dose response (SGR vs dose) (HCI-037 PDxO cells) | response compared with primary lesion model (HCI-038 PDxO cells) | response compared with primary lesion model (HCI-039 PDxO cells)
C[C@]12CC[C@@H]3c4ccc(O)cc4C[C@@H](CCCCCCCCC[S+]([O-])CCCC(F)(F)C(F)(F)F)[C@H]3[C@@H]1CC[C@@H]2O (some centres unmarked) [Fulvestrant] | 1340 |  |  |  |  | 0.1608 (2×) and 0.8009 | 0.6 |  |  |  |  |  |  |  | 
CCC(=C(c1ccc(O)cc1)c1ccc(OCCN(C)C)cc1)c1ccccc1 [4HT, 4-hydroxy-Tamoxifen] |  | −0.6116 and −0.6471 |  |  |  | 1.76E−08 (2×) and 8.28E−08 | 1.0 | 4.596 | −0.736 | 0.07942 | 3.312 and 3.655 | 4.2 | strong response |  | 
